Experimental data published in patent US10391095B2, “DNA-PK inhibitors” (Vertex Pharmaceuticals Incorporated, priority 2012, dated 2019).

target: DNA-PK (Homo sapiens, UniProt P78527); experiment: DNA-PK inhibition assay (radiometric, 33P-ATP); assay type: biochemical; conditions: 100 μM ATP, competitive tight-binding fit
Method in brief: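 Approx. 6 nM DNA-PK with 10 µg/mL sheared dsDNA, 0.8 mg/mL peptide substrate and 100 µM 33P-ATP in HEPES pH 7.5, 10 mM MgCl2; 45 min, phosphoric acid quench. Phosphopeptide captured on filter plates and counted by scintillation; Ki from a competitive tight-binding model fit.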

Row | Compound | Ki [nM]
1 | CNCCNc1ccc(-c2cc(NC[C@@H](C)c3ccc(C(=O)NC)cc3OC)ncn2)cn1 [Compound 469] | < 30
2 | C[C@H](CNc1cc(-c2cnc3c(cnn3CCO)c2)ncn1)c1ccnc2cccnc12 [Compound 472] | < 30
3 | COc1nc(N)ncc1[C@H](C)CNc1cc(-c2ccc(C)nc2)ncn1 [Compound 475] | < 30
4 | CNC(=O)c1ccnc2c([C@H](C)CNc3cc(-c4ccc(C)nc4)ncn3)cccc12 [Compound 476] | < 30
5 | Cc1ccc(-c2cc(NCC(C)c3ccc(F)c4ccoc34)ncn2)cn1 (centres unmarked) [Compound 477] | < 30
6 | CNC(=O)c1ccc([C@H](C)CNc2cc(-c3ccc(C)nc3)ncn2)c(OC2CCC2)c1 [Compound 478] | < 30
7 | CNC(=O)c1ccc([C@H](C)CNc2cc(-c3ccnc4c3ccn4C3COC3)ncn2)c(OC)c1 [Compound 479] | < 30
8 | C[C@H](CNc1cc(-c2ccc3ncccc3c2)ncn1)c1ccnc2c1OCC2 [Compound 480] | < 30
9 | CNC(=O)c1ccc([C@H](C)CNc2cc(-c3cn(C4COC4)c4ncccc34)ncn2)c(OC)c1 [Compound 481] | < 30
10 | CNCCNc1ccc(-c2cc(NC[C@@H](C)c3ccnc4c3OCC4)ncn2)cn1 [Compound 483] | < 30
11 | CNC(=O)c1cc(C)nc2c([C@H](C)CNc3cc(-c4ccc(C)nc4)ncn3)cccc12 [Compound 484] | < 30
12 | CNC(=O)c1ccc([C@H](C)CNc2cc(-c3ccc(C)nc3)ncn2)c2ncccc12 [Compound 485] | < 30
13 | CCNc1ccc(-c2cc(NC[C@@H](C)c3ccnc4c3OCC4)ncn2)cn1 [Compound 486] | < 30
14 | CNC(=O)c1ccc([C@H](C)CNc2cc(-c3cnc4c(c3)OCCN4C)ncn2)c(OC)c1 [Compound 490] | < 30
15 | C[C@H](CNc1cc(-c2cnc3c(cnn3C3COC3)c2)ncn1)c1ccnc2c1OCCO2 [Compound 493] | < 30
16 | Cc1ccc(-c2cc(NC[C@@H](C)c3cccc4c(C(N)=O)ccnc34)ncn2)cn1 [Compound 494] | < 30

Row | Compound | Ki [nM]
17 | Cc1ccc(-c2cc(NC[C@@H](C)c3ccnc4cccnc34)ncn2)cn1 [Compound 495] | < 30
18 | CNc1ncc(-c2cc(NC[C@@H](C)c3ccnc4cccnc34)ncn2)cn1 [Compound 497] | < 30
19 | C[C@H](CNc1cc(-c2ccc3ncccc3c2)ncn1)c1ccnc2cccnc12 [Compound 501] | < 30
20 | Cc1ccc(-c2cc(NC[C@@H](C)c3cc(C)nc4c3OCC4)ncn2)cn1 [Compound 502] | < 30
21 | CC(=O)N1CCOc2c([C@H](C)CNc3cc(-c4ccc(C)nc4)ncn3)cccc21 [Compound 504] | < 30
22 | Cc1cc([C@H](C)CNc2cc(-c3cnc4c(cnn4CCO)c3)ncn2)c2c(n1)CCO2 [Compound 505] | < 30
23 | Cc1cc([C@H](C)CNc2cc(-c3ccc4ncccc4c3)ncn2)c2c(n1)CCO2 [Compound 508] | < 30
24 | CNC(=O)c1ccnc2c([C@H](C)CNc3cc(-c4ccc(C)nc4)ncn3)ccc(OC)c12 [Compound 509] | < 30
25 | Cc1ccc(-c2cc(NC[C@@H](C)c3cccc4c3OCCN4)ncn2)cn1 [Compound 513] | < 30
26 | CCNc1ccc(-c2cc(NC[C@@H](C)c3ccnc4cccnc34)ncn2)cn1 [Compound 514] | < 30
27 | CNC(=O)c1ccnc2c([C@H](C)CNc3cc(-c4ccc(C)nc4)ncn3)ccc(F)c12 [Compound 515] | < 30
28 | COc1ncc(-c2cc(NC[C@@H](C)c3ccnc4c3OCCO4)ncn2)cc1N [Compound 519] | < 30
29 | C[C@H](CNc1cc(-c2ccc(N3CCOCC3)nc2)ncn1)c1ccnc2c1OCCO2 [Compound 522] | < 30
30 | C[C@H](CNc1cc(-c2cnc3c(cnn3C3CN(C(=O)OC(C)(C)C)C3)c2)ncn1)c1ccnc2c1OCCO2 [Compound 526] | < 30
31 | C[C@H](CNc1cc(-c2cnc3c(cnn3C3CNC3)c2)ncn1)c1ccnc2c1OCCO2 [Compound 527] | < 30
32 | Cc1ccc(-c2cc(NC[C@@H](C)c3ccnc4c3OCCC4)ncn2)cn1 [Compound 535] | < 30
